Laboratory results from US20250230147A1, “LACTAMS AS CBL-B INHIBITORS” (Genentech, Inc., priority 2021, published 2025).
Where a name gives a salt, the structure may show the parent alone.

Tests used:
Cbl-b = Cbl-b (Homo sapiens (Human), UniProt Q13191); assay: Cbl-b LCK Ub TR-FRET assay (Cbl-b Lck HTRF); type: biochemical
In short: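 Biotin-Cbl-b preincubated with compound (10-point 3-fold series) 60 min, then His-LCK with 1 mM ATP (2× mixture) added for 90 min at room temperature. Ubiquitination detected by TR-FRET using HA-ubiquitin/UBE2D2 adduct, anti-HA-D2 and streptavidin-Eu; IC50 normalised to no-LCK and DMSO controls.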

c-Cbl = c-Cbl (Homo sapiens (Human), UniProt P22681); assay: C-Cbl LCK Ub TR-FRET assay (c-cbl Lck HTRF); type: biochemical; conditions: for (fold-selectivity): C-cbl Lck HTRF IC50 relative to Cbl-b Lck HTRF IC50
Sequence of c-Cbl (P22681 47-435): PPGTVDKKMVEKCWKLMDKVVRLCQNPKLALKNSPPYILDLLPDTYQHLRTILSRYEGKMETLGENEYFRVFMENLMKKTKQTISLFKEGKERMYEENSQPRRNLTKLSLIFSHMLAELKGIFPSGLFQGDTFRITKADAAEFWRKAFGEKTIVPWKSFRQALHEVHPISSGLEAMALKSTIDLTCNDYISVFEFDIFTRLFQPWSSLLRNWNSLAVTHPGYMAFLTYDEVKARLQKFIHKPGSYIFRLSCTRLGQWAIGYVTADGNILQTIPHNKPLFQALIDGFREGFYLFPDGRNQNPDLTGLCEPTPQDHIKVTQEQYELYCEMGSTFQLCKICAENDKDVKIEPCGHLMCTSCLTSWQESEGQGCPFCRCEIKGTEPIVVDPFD
In short: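 After the ubiquitination reaction, detection mixture was added and plates incubated 20 min at room temperature before reading. IC50 values were calculated with wells lacking LCK as the low control and DMSO as the high control.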

Sequence of Cbl-b (Q13191 40-426): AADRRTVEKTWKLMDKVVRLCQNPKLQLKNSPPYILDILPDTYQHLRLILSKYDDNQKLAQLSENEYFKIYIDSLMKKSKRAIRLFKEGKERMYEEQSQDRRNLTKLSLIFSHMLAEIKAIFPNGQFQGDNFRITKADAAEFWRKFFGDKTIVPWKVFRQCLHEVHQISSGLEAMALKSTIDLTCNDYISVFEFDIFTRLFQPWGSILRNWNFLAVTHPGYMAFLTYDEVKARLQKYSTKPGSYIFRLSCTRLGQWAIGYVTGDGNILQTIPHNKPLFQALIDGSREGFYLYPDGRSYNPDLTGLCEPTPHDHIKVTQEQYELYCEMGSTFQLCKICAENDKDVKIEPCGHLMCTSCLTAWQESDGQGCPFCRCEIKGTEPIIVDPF

SMILES | IC50 (Cbl-b) [nM] | IC50 (c-Cbl) [nM] | (fold-selectivity) (c-Cbl)
Cn1cnnc1CC1(c2cc(NCCC#N)nc(N3Cc4c(cc(CNC5(C)CCC5)cc4C(F)(F)F)C3=O)c2)CCC1 [Compound 308, 3-((4-(1-((4-methyl-4H-1,2,4-triazol-3-yl)methyl)cyclobutyl)-6-(6-(((1-methylcyclobutyl)amino)methyl)-1-oxo-4-(trifluoromethyl)isoindolin-2-yl)pyridin-2-yl)amino)propanenitrile] | 12 | 7.5 | (0.63x)
CC1CCN(CCNc2cc(C3(Cc4nncn4C)CCC3)cc(N3Cc4c(cc(CNC5(C)CCC5)cc4C(F)(F)F)C3=O)n2)CC1 [Compound 309, 2-(4-(1-((4-methyl-4H-1,2,4-triazol-3-yl)methyl)cyclobutyl)-6-((2-(4-methylpiperidin-1-yl)ethyl)amino)pyridin-2-yl)-6-(((1-methylcyclobutyl)amino)methyl)-4-(trifluoromethyl)isoindolin-1-one formate] | 540 | 520 | 
CNc1cc(C2(Cc3nncn3C)CCC2)cc(N2Cc3c(cc(CNC4(C)CCC4)cc3C(F)(F)F)C2=O)n1 [Compound 310, 2-(4-(1-((4-methyl-4H-1,2,4-triazol-3-yl)methyl)cyclobutyl)-6-(methylamino)pyridin-2-yl)-6-(((1-methylcyclobutyl)amino)methyl)-4-(trifluoromethyl)isoindolin-1-one formate] | 10 | 11 | 
CN(C)C(=O)CNc1cc(C2(Cc3nncn3C)CCC2)cc(N2Cc3c(cc(CNC4(C)CCC4)cc3C(F)(F)F)C2=O)n1 [Compound 311, N,N-dimethyl-2-((4-(1-((4-methyl-4H-1,2,4-triazol-3-yl)methyl)cyclobutyl)-6-(6-(((1-methylcyclobutyl)amino)methyl)-1-oxo-4-(trifluoromethyl)isoindolin-2-yl)pyridin-2-yl)amino)acetamide formate] | 110 | 140 | 
CC(=O)NCCCCNc1cc(C2(Cc3nncn3C)CCC2)cc(N2Cc3c(cc(CNC4(C)CCC4)cc3C(F)(F)F)C2=O)n1 [Compound 314, N-(4-((4-(1-((4-methyl-4H-1,2,4-triazol-3-yl)methyl)cyclobutyl)-6-(6-(((1-methylcyclobutyl)amino)methyl)-1-oxo-4-(trifluoromethyl)isoindolin-2-yl)pyridin-2-yl)amino)butyl)acetamide formate] | 27 | 31 | 
CN(C)Cc1cccc(CNc2cc(C3(Cc4nncn4C)CCC3)cc(N3Cc4c(cc(CNC5(C)CCC5)cc4C(F)(F)F)C3=O)n2)c1 [Compound 318, 2-(6-((3-((dimethylamino)methyl)benzyl)amino)-4-(1-((4-methyl-4H-1,2,4-triazol-3-yl)methyl)cyclobutyl)pyridin-2-yl)-6-(((1-methylcyclobutyl)amino)methyl)-4-(trifluoromethyl)isoindolin-1-one] | 130 | 140 | (1.1x)
CC(NCc1cc2c(c(C(F)(F)F)c1)CN(c1cccc(C3(Cc4nncn4C)CC(F)(F)C3)c1)C2=O)C1CC1 (stereo not shown) [Compound 319, 6-(((1-cyclopropylethyl)amino)methyl)-2-(3-(3,3-difluoro-1-((4-methyl-4H-1,2,4-triazol-3-yl)methyl)cyclobutyl)phenyl)-4-(trifluoromethyl)isoindolin-1-one formate] | 14 | 16 | 
Cn1cnnc1CC1(c2cc(CCC(C)(C)C)nc(N3Cc4c(cc(CNC5(C)CCC5)cc4C(F)(F)F)C3=O)c2)CCC1 [Compound 322, 2-(6-(3,3-dimethylbutyl)-4-(1-((4-methyl-4H-1,2,4-triazol-3-yl)methyl)cyclobutyl)pyridin-2-yl)-6-(((1-methylcyclobutyl)amino)methyl)-4-(trifluoromethyl)isoindolin-1-one] | 27 | 34 | (1.2x)
CC(=O)N1CCC(CNc2cc(C3(Cc4nncn4C)CCC3)cc(N3Cc4c(cc(CNC5(C)CCC5)cc4C(F)(F)F)C3=O)n2)CC1.Cl [Compound 329, 2-(6-(((1-acetylpiperidin-4-yl)methyl)amino)-4-(1-((4-methyl-4H-1,2,4-triazol-3-yl)methyl)cyclobutyl)pyridin-2-yl)-6-(((1-methylcyclobutyl)amino)methyl)-4-(trifluoromethyl)isoindolin-1-one hydrochloride] | 98 | 65 | (0.66x)

Next, values leading:

IC50 (Cbl-b) [nM] | IC50 (c-Cbl) [nM] | (fold-selectivity) (c-Cbl) | SMILES
70 | 110 | (1.5x) | CNS(=O)(=O)CCNc1cc(C2(Cc3nncn3C)CCC2)cc(N2Cc3c(cc(CNC4(C)CCC4)cc3C(F)(F)F)C2=O)n1 [Compound 312, N-methyl-2-((4-(1-((4-methyl-4H-1,2,4-triazol-3-yl)methyl)cyclobutyl)-6-(6-(((1-methylcyclobutyl)amino)methyl)-1-oxo-4-(trifluoromethyl)isoindolin-2-yl)pyridin-2-yl)amino)ethanesulfonamide]
24 | 23 | (0.95x) | Cn1cc(CNc2cc(C3(Cc4nncn4C)CCC3)cc(N3Cc4c(cc(CNC5(C)CCC5)cc4C(F)(F)F)C3=O)n2)cn1 [Compound 313, 2-(6-(((1-methyl-1H-pyrazol-4-yl)methyl)amino)-4-(1-((4-methyl-4H-1,2,4-triazol-3-yl)methyl)cyclobutyl)pyridin-2-yl)-6-(((1-methylcyclobutyl)amino)methyl)-4-(trifluoromethyl)isoindolin-1-one]
570 | 480 | (0.84x) | Cn1cnnc1CC1(c2cc(NCC3CCS(=O)(=O)CC3)nc(N3Cc4c(cc(CNC5(C)CCC5)cc4C(F)(F)F)C3=O)c2)CCC1 [Compound 315, 2-(6-(((1,1-dioxidotetrahydro-2H-thiopyran-4-yl)methyl)amino)-4-(1-((4-methyl-4H-1,2,4-triazol-3-yl)methyl)cyclobutyl)pyridin-2-yl)-6-(((1-methylcyclobutyl)amino)methyl)-4-(trifluoromethyl)isoindolin-1-one]
16 | 20 | (1.2x) | Cn1cnnc1CC1(c2cc(NCCc3c[nH]c4ccccc34)nc(N3Cc4c(cc(CNC5(C)CCC5)cc4C(F)(F)F)C3=O)c2)CCC1 [Compound 316, 2-(6-((2-(1H-indol-3-yl)ethyl)amino)-4-(1-((4-methyl-4H-1,2,4-triazol-3-yl)methyl)cyclobutyl)pyridin-2-yl)-6-(((1-methylcyclobutyl)amino)methyl)-4-(trifluoromethyl)isoindolin-1-one]
22 | 27 | (1.2x) | Cn1cnnc1CC1(c2cc(NCC(F)(F)CO)nc(N3Cc4c(cc(CNC5(C)CCC5)cc4C(F)(F)F)C3=O)c2)CCC1 [Compound 317, 2-(6-((2,2-difluoro-3-hydroxypropyl)amino)-4-(1-((4-methyl-4H-1,2,4-triazol-3-yl)methyl)cyclobutyl)pyridin-2-yl)-6-(((1-methylcyclobutyl)amino)methyl)-4-(trifluoromethyl)isoindolin-1-one]
21 | 51 | (2.4x) | Cn1cnc(CNc2cc(C3(Cc4nncn4C)CCC3)cc(N3Cc4c(cc(CNC5(C)CCC5)cc4C(F)(F)F)C3=O)n2)c1 [Compound 320, 2-(6-(((1-methyl-1H-imidazol-4-yl)methyl)amino)-4-(1-((4-methyl-4H-1,2,4-triazol-3-yl)methyl)cyclobutyl)pyridin-2-yl)-6-(((1-methylcyclobutyl)amino)methyl)-4-(trifluoromethyl)isoindolin-1-one]
18 | 23 | (1.3x) | Cn1cnnc1CC1(c2cc(NCCc3ccncc3)nc(N3Cc4c(cc(CNC5(C)CCC5)cc4C(F)(F)F)C3=O)c2)CCC1 [Compound 321, 2-(4-(1-((4-methyl-4H-1,2,4-triazol-3-yl)methyl)cyclobutyl)-6-((2-(pyridin-4-yl)ethyl)amino)pyridin-2-yl)-6-(((1-methylcyclobutyl)amino)methyl)-4-(trifluoromethyl)isoindolin-1-one]
12 | 7.6 | (0.66x) | Cn1cnnc1CC1(c2cc(-c3ccccc3)nc(N3Cc4c(cc(CNC5(C)CCC5)cc4C(F)(F)F)C3=O)c2)CCC1 [Compound 324, 2-(4-(1-((4-methyl-4H-1,2,4-triazol-3-yl)methyl)cyclobutyl)-6-phenylpyridin-2-yl)-6-(((1-methylcyclobutyl)amino)methyl)-4-(trifluoromethyl)isoindolin-1-one]
47 | 41 | (0.87x) | Cn1cnnc1CC1(c2cc(CCc3ccccc3)nc(N3Cc4c(cc(CNC5(C)CCC5)cc4C(F)(F)F)C3=O)c2)CCC1 [Compound 325, 2-(4-(1-((4-methyl-4H-1,2,4-triazol-3-yl)methyl)cyclobutyl)-6-phenethylpyridin-2-yl)-6-(((1-methylcyclobutyl)amino)methyl)-4-(trifluoromethyl)isoindolin-1-one]
15 | 16 | (1.1x) | Cn1cnnc1CC1(c2ccnc(N3Cc4c(cc(CNC5(C)CCC5)cc4C(F)(F)F)C3=O)c2)CCC1 [Compound 326, 2-(4-(1-((4-methyl-4H-1,2,4-triazol-3-yl)methyl)cyclobutyl)pyridin-2-yl)-6-(((1-methylcyclobutyl)amino)methyl)-4-(trifluoromethyl)isoindolin-1-one]
12 | 12 | (1.0x) | Cn1cc(-c2cc(C3(Cc4nncn4C)CCC3)cc(N3Cc4c(cc(CNC5(C)CCC5)cc4C(F)(F)F)C3=O)n2)cn1 [Compound 327, 2-(6-(1-methyl-1H-pyrazol-4-yl)-4-(1-((4-methyl-4H-1,2,4-triazol-3-yl)methyl)cyclobutyl)pyridin-2-yl)-6-(((1-methylcyclobutyl)amino)methyl)-4-(trifluoromethyl)isoindolin-1-one]
